From patent US11857551B1, “Methods for the prevention and treatment of hearing loss” (Ting Therapeutics LLC, priority 2020, dated 2024)
Where a name gives a salt, the structure may show the parent alone.

What was measured:
[1] = tested on: zebrafish hair cells; experiment: Excitotoxic hair cell damage in zebrafish (FIG. 4C); assay type: in vivo; details: P<0.05, one-way ANOVA
Text: (*P<0.05, one-way ANOVA.)

[2] = tested on: zebrafish HCs (lateral-line neuromasts); experiment: Cisplatin ototoxicity in zebrafish, neuromast hair cell count
[3] = tested on: HEI-OC1 cells; experiment: Caspase-Glo 3/7 assay in cisplatin-treated HEI-OC1 cells; details: for activity at 13.3 µM / activity at 0.165 µM / activity at 40 µM: Mus musculus, HEI-OC1, 19 h, read-out: caspase activity reached; for caspase activity reached: normalized to cisplatin-only and media-only controls; for IC50: read-out: calculated IC50 (percent protection dose response, caspase 3/7), HEI-OC1 cells, 1 h pretreatment, 19 h co-incubation
Method: Cells were seeded at 8,000 cells/well in 96 well plates and left to attach overnight. […] The cells were co-incubated with cisplatin and drug candidates for an additional 19 hours prior to Caspase-Glo 3/7 assay (Promega, Madison, WI) as previously shown. […] The luminescence detection representing caspase activity in each well was obtained using a Cytation Hybrid Multi-Mode Reader (Biotek, Winooski, VT, USA). The percent protection of the cells was calculated using caspase 3/7 readouts and the following formula:
Caspase activity was measured using Caspase-Glo 3/7 assay and then the results were calculated as percentage of protection as an indicator of cell survival/viability. Percent protection for each compound at the tested dosages were then plotted to show dose response curves, and IC50s were calculated.

[4] = tested on: cancer patients; details: cisplatin chemotherapy; cited from earlier work
[5] = tested on: patients who received cisplatin chemotherapy; details: cited from earlier work
[6] = 0.002, 0.018, 0.165, 1.48, 13.3 μM for 1 hour, then co-incubation with 400 μM cisplatin for 4 hours

## O=c1[nH]cc(F)c(=O)[nH]1 [5-fluorouracil]
[1]
  protection of hair cells from excitotoxic damage: protect hair cells from excitotoxic damage
[2]; [6]
  protection against cisplatin ototoxicity (CIHL) in zebrafish: showed protection against CIHL
[3]
  activity at 13.3 µM: ~30%

## Sc1ncnc2nc[nH]c12 [6 mercaptopurine]
[2]; [6]
  protection against cisplatin ototoxicity (CIHL) in zebrafish: showed protection against CIHL
[3]
  activity at 0.165 µM: ~70%

## N.N.[Cl][Pt][Cl] [Cisplatin]
[4]
  permanent hearing loss, share of treated cancer patients: 40-60%

## CCCCC1(C2CCCC2)Cc2cc(OCCCC(=O)O)c(Cl)c(Cl)c2C1=O (stereo not drawn) [DCPIB]
[2]; [6]
  protection against cisplatin ototoxicity (CIHL) in zebrafish: showed protection against CIHL
[3]; dosage ~4.4 μM, cisplatin 50 μM
  caspase activity reached: 0%
[3]; cisplatin 50 μM
  IC50: 3.1 µM

## O=C(Nc1ccc([N+](=O)[O-])cc1Cl)c1cc(Cl)ccc1O [Niclosamide]
[2]; pretreated with 0.002 μM, n=5 to 8 per group
  cisplatin damage in zebrafish HCs at SO3 and O1-2 neuromasts: significantly reduced Cisplatin damage
[3]; dose 4.4 μM, cisplatin 50 μM, n=3 wells
  caspase-3/7 activity versus control cells (in words): reduce caspase activity to comparable levels as control cells

## O=S([O-])([O-])=S.[Na+].[Na+] [Sodium thiosulfate (STS), Sodium thiosulfate]
[5]; patients with other cancers
  protecting cisplatin-induced hearing loss (CIHL): ineffective
[5]; pediatric patients with localized hepatoblastoma who received cisplatin chemotherapy
  protecting hearing: effective

## CC[C@@]1(O)C(=O)OCc2c1cc1n(c2=O)Cc2cc3ccccc3nc2-1 [camptothecin]
[2]; [6]
  protection against cisplatin ototoxicity (CIHL) in zebrafish: showed protection against CIHL
[3]
  activity at 13.3 µM: ~80%

## C[C@H](CS)C(=O)N1CCC[C@H]1C(=O)O [captopril]
[2]; [6]
  protection against cisplatin ototoxicity (CIHL) in zebrafish: showed protection against CIHL
[3]
  activity at 0.165 µM: ~85%

## CN1C(=O)[C@@]23C[C@]4([C@]56C[C@@]78SS[C@@](CO)(C(=O)N7[C@H]5Nc5ccccc56)N(C)C8=O)c5ccccc5N[C@@H]4N2C(=O)[C@]1(CO)SS3 [chaetocin]
[3]
  activity at 13.3 µM: 0%

## OCC(S)CS (stereo not drawn) [dimercaptopropanol]
[2]; [6]
  protection against cisplatin ototoxicity (CIHL) in zebrafish: showed protection against CIHL
[3]; dosage ~40 μM, cisplatin 50 μM
  caspase activity reached: 0%
[3]; cisplatin 50 μM
  IC50: ~15 µM

## CO[C@H]1C[C@@H]2CC[C@@H](C)[C@@](O)(O2)C(=O)C(=O)N2CCCC[C@H]2C(=O)O[C@H]([C@H](C)C[C@@H]2CC[C@@H](OCCO)[C@H](OC)C2)CC(=O)[C@H](C)/C=C(\C)[C@@H](O)[C@@H](OC)C(=O)[C@H](C)C[C@H](C)/C=C/C=C/C=C/1C [everolimus]
[2]; [6]
  protection against cisplatin ototoxicity (CIHL) in zebrafish: showed protection against CIHL
[3]
  activity at 13.3 µM: 0%

## CC(Nc1nc(N2CCCC2)nc2ccccc12)c1ccccc1 (stereo not drawn) [importazole]
[1]
  protection of hair cells from excitotoxic damage: protect hair cells from excitotoxic damage
[2]; [6]
  protection against cisplatin ototoxicity (CIHL) in zebrafish: showed protection against CIHL
[3]; dosage ~40 μM, cisplatin 50 μM
  caspase activity reached: 0%
[3]; cisplatin 50 μM
  IC50: 6.52 µM

## CCc1c2c(nc3ccc(OC(=O)N4CCC(N5CCCCC5)CC4)cc13)-c1cc3c(c(=O)n1C2)COC(=O)[C@]3(O)CC [irinotecan]
[2]; [6]
  protection against cisplatin ototoxicity (CIHL) in zebrafish: showed protection against CIHL
[3]
  activity at 13.3 µM: ~60%

## CCCC[C@@H](C)/C=C(C)/C=C(\C)C(=O)NC1=C[C@@](O)(/C=C/C=C/C=C/C(=O)NC2=C(O)CCC2=O)[C@@H]2O[C@@H]2C1=O [manumycin A]
[2]; [6]
  protection against cisplatin ototoxicity (CIHL) in zebrafish: showed protection against CIHL
[3]; dosage ~1.48 μM, cisplatin 50 μM
  caspase activity reached: ~35%
[3]; cisplatin 50 μM
  IC50: 11.7 µM

## CC(=O)c1c(C)c2cnc(Nc3ccc(N4CCNCC4)cn3)nc2n(C2CCCC2)c1=O [palbociclib]
[3]
  activity at 40 µM: ~80%

## C1CCC(C(CC2CCCCN2)C2CCCCC2)CC1 (stereo not drawn) [perhexiline maleate]
[2]; [6]
  protection against cisplatin ototoxicity (CIHL) in zebrafish: showed protection against CIHL
[3]
  activity at 40 µM: 0%

## CCCc1cc(C(N)=S)ccn1 [prothionamide]
[2]; [6]
  protection against cisplatin ototoxicity (CIHL) in zebrafish: showed protection against CIHL
[3]
  activity at 40 µM: ~50%

## C[C@@H]1C[C@H]2O[C@@H]2/C=C\C=C\C(=O)Cc2c(Cl)c(O)cc(O)c2C(=O)O1 [radicicol]
[2]; [6]
  protection against cisplatin ototoxicity (CIHL) in zebrafish: showed protection against CIHL
[3]
  activity at 13.3 µM: 0%

## Cc1nc2ccc(CN(C)c3ccc(C(=O)N[C@@H](CCC(=O)O)C(=O)O)s3)cc2c(=O)[nH]1 [raltitrexed]
[2]; [6]
  protection against cisplatin ototoxicity (CIHL) in zebrafish: showed protection against CIHL
[3]
  activity at 40 µM: ~20%

## CC(=O)c1c(O)c(C)c(O)c(Cc2c(O)c3c(c(C(=O)/C=C/c4ccccc4)c2O)OC(C)(C)C=C3)c1O [rottlerin]
[2]; [6]
  protection against cisplatin ototoxicity (CIHL) in zebrafish: showed protection against CIHL
[3]
  activity at 13.3 µM: 0%

## CC(C(=O)Nc1cccc(/N=C/c2c(O)ccc3ccccc23)c1)c1ccccc1 (stereo not drawn) [salermide]
[2]; [6]
  protection against cisplatin ototoxicity (CIHL) in zebrafish: showed protection against CIHL
[3]
  activity at 40 µM: 0%

## O=C(O)[C@@H](S)[C@@H](S)C(=O)O [succimer]
[2]; [6]
  protection against cisplatin ototoxicity (CIHL) in zebrafish: showed protection against CIHL
[3]
  activity at 40 µM: ~80%

## CSc1ccc2c(c1)N(CCC1CCCCN1C)c1ccccc1S2 (stereo not drawn) [thioridazine]
[2]; zebrafish, in vivo
  protection against cisplatin ototoxicity (CIHL) in zebrafish: showed protection against CIHL
[3]
  activity at 40 µM: 0%

## CC(S)C(=O)NCC(=O)O (stereo not drawn) [tiopronin]
[2]; [6]
  protection against cisplatin ototoxicity (CIHL) in zebrafish: showed protection against CIHL

## COC[C@H]1OC(=O)c2coc3c2[C@@]1(C)C1=C(C3=O)[C@@H]2CCC(=O)[C@@]2(C)C[C@H]1OC(C)=O [wortmannin]
[3]
  activity at 40 µM: ~50%
